Experimental data published in the supplement of paper PMC10883282.

Assays:
Test in all cases: relative viability vs DMSO control (72 h) (fraction); higher = more viable cells
A204 = system: A204
How it was run: (§1)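 Percent growth from ATPLite readings, averaged over up to triplicate wells, was used as relative viability. Sarcoma cell lines were seeded into 384-well plates for 80–90% confluence, dosed after 24 h, and kept 72 h at 37 °C, 5% CO2. Data were rescaled to a range where 1 is full and 0 is none.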

G401 = system: G401
How it was run: as §1

HS729 = system: HS729
How it was run: as §1

HT1080 = system: HT1080
How it was run: as §1

KHOS-NP = system: KHOS-NP
How it was run: as §1

MES-SA = system: MES-SA
How it was run: as §1

SK-LMS-1 = system: SK-LMS-1
How it was run: as §1

SW1353 = system: SW1353
How it was run: as §1

SW684 = system: SW684
How it was run: as §1

SW872 = system: SW872
How it was run: as §1

SYO-1 = system: SYO-1
How it was run: as §1

VA-ES-BJ = system: VA-ES-BJ
How it was run: as §1

Cc1cccc(-c2nn3c(c2-c2ccnc4ccc(C(N)=O)cc24)CCC3)n1 [Galunisertib]
Details	relative viability
A204, 0.00017 µM	1.01
A204, 0.00051 µM	1.04
A204, 0.00152 µM	0.99
A204, 0.00457 µM	1.03
A204, 0.01372 µM	0.984
A204, 0.04115 µM	1
A204, 0.1235 µM	1.01
A204, 0.3704 µM	1.02
A204, 1.111 µM	0.996
A204, 3.333 µM	0.996
A204, 10 µM	0.936
G401, 0.00017 µM	0.977
G401, 0.00051 µM	0.93
G401, 0.00152 µM	1.01
G401, 0.00457 µM	0.959
G401, 0.01372 µM	0.974
G401, 0.04115 µM	0.964
G401, 0.1235 µM	0.984
G401, 0.3704 µM	0.971
G401, 1.111 µM	0.965
G401, 3.333 µM	0.9721
G401, 10 µM	0.979
HS729, 0.00017 µM	0.993
HS729, 0.00051 µM	0.933
HS729, 0.00152 µM	0.948
HS729, 0.00457 µM	0.897
HS729, 0.01372 µM	0.901
HS729, 0.04115 µM	0.892
HS729, 0.1235 µM	0.898
HS729, 0.3704 µM	0.836
HS729, 1.111 µM	0.794
HS729, 3.333 µM	0.756
HS729, 10 µM	0.749
HT1080, 0.00017 µM	1.06
HT1080, 0.00051 µM	1.04
HT1080, 0.00152 µM	0.959
HT1080, 0.00457 µM	1.04
HT1080, 0.01372 µM	1.04
HT1080, 0.04115 µM	1.01
HT1080, 0.1235 µM	1.01
HT1080, 0.3704 µM	1.04
HT1080, 1.111 µM	1.04
HT1080, 3.333 µM	1.03
HT1080, 10 µM	1.02
KHOS-NP, 0.00017 µM	1.088
KHOS-NP, 0.00051 µM	1.09
KHOS-NP, 0.00152 µM	1.066
KHOS-NP, 0.00457 µM	1.06
KHOS-NP, 0.01372 µM	1.06
KHOS-NP, 0.04115 µM	1.07
KHOS-NP, 0.1235 µM	1.03
KHOS-NP, 0.3704 µM	1.04
KHOS-NP, 1.111 µM	0.999
KHOS-NP, 3.333 µM	0.978
KHOS-NP, 10 µM	0.976
MES-SA, 0.00017 µM	0.925
MES-SA, 0.00051 µM	0.922
MES-SA, 0.00152 µM	0.916
MES-SA, 0.00457 µM	0.897
MES-SA, 0.01372 µM	0.911
MES-SA, 0.04115 µM	0.91
MES-SA, 0.1235 µM	0.9002
MES-SA, 0.3704 µM	0.891
MES-SA, 1.111 µM	0.888
MES-SA, 3.333 µM	0.863
MES-SA, 10 µM	0.873
SK-LMS-1, 0.00017 µM	1.04
SK-LMS-1, 0.00051 µM	1
SK-LMS-1, 0.00152 µM	1.01
SK-LMS-1, 0.00457 µM	0.982
SK-LMS-1, 0.01372 µM	1.01
SK-LMS-1, 0.04115 µM	0.982
SK-LMS-1, 0.1235 µM	1.01
SK-LMS-1, 0.3704 µM	1
SK-LMS-1, 1.111 µM	1
SK-LMS-1, 3.333 µM	0.953
SK-LMS-1, 10 µM	0.965
SW684, 0.00017 µM	1.08
SW684, 0.00051 µM	1.09
SW684, 0.00152 µM	1.08
SW684, 0.00457 µM	1.13
SW684, 0.01372 µM	1.09
SW684, 0.04115 µM	1.11
SW684, 0.1235 µM	1.09
SW684, 0.3704 µM	1.08
SW684, 1.111 µM	1.05
SW684, 3.333 µM	1.08
SW684, 10 µM	1.09
SW872, 0.00017 µM	1.05
SW872, 0.00051 µM	1.05
SW872, 0.00152 µM	1
SW872, 0.00457 µM	1.02
SW872, 0.01372 µM	0.989
SW872, 0.04115 µM	0.991
SW872, 0.1235 µM	0.956
SW872, 0.3704 µM	0.96
SW872, 1.111 µM	1
SW872, 3.333 µM	1.01
SW872, 10 µM	1
SW1353, 0.00017 µM	1.01
SW1353, 0.00051 µM	0.967
SW1353, 0.00152 µM	0.991
SW1353, 0.00457 µM	0.954
SW1353, 0.01372 µM	0.962
SW1353, 0.04115 µM	0.926
SW1353, 0.1235 µM	0.9202
SW1353, 0.3704 µM	0.959
SW1353, 1.111 µM	0.967
SW1353, 3.333 µM	1
SW1353, 10 µM	0.976
SYO-1, 0.00017 µM	0.972
SYO-1, 0.00051 µM	0.942
SYO-1, 0.00152 µM	0.913
SYO-1, 0.00457 µM	0.898
SYO-1, 0.01372 µM	0.867
SYO-1, 0.04115 µM	0.824
SYO-1, 0.1235 µM	0.783
SYO-1, 0.3704 µM	0.752
SYO-1, 1.111 µM	0.738
SYO-1, 3.333 µM	0.685
SYO-1, 10 µM	0.671
VA-ES-BJ, 0.00017 µM	1.04
VA-ES-BJ, 0.00051 µM	1
VA-ES-BJ, 0.00152 µM	1.03
VA-ES-BJ, 0.00457 µM	0.9974
VA-ES-BJ, 0.01372 µM	0.983
VA-ES-BJ, 0.04115 µM	0.986
VA-ES-BJ, 0.1235 µM	1.01
VA-ES-BJ, 0.3704 µM	1.01
VA-ES-BJ, 1.111 µM	1.07
VA-ES-BJ, 3.333 µM	1.08
VA-ES-BJ, 10 µM	1.11
